# Key:
# Format in all cases: in vivo
# [1] = tested on: transplanted human cornea; assay: Effects on transplanted human cornea (case, angiogenesis in corneal graft); conditions: after 3 weeks of ocular instillation
# Protocol: Corneal transplantation was performed in a case of corneal perforation resulting from corneal herpes (person), and as a result, severe hyperemia was observed one month after surgery, and vascularization was observed also in a corneal graft. Peripheral anterior synechia was observed, and secondary glaucoma was observed, and therefore GLANATEC ophthalmic solution 0.4% was prescribed.
# [2] = tested on: transplanted mouse corneas; assay: Mouse corneal transplant model: angiogenesis score, opacity score and graft survival by slit lamp microscope; conditions: Group R3: ocular instillation three times daily
# Protocol: (§1) Mouse corneal transplant models were prepared in accordance with a method described in a document (J Biol Methods 2015 2(3); e 27, hereinafter referred to as Document A) and used in an experiment. More specifically, allograft corneal transplantation was performed between 6 to 8-week-old donor male C57BL/6 mice and 6 to 8-week-old host male Balb/c mice.
# (§2) The mice that had received corneal transplantation were divided into three groups (5 mice per group): ocular instillation of PBS twice daily (Group P: control group); ocular instillation of ripasudil twice daily (Group R2); and ocular instillation of ripasudil three times daily (Group R3).
# (§3) The amount of PBS or ripasudil instilled into one eye per administration was 0.1 μL, and GLANATEC ophthalmic solution 0.4% was used as ripasudil.
# (§4) After transplantation, the ocular instillation was performed every day until day 56, during which the angiogenesis score and opacity score (each of which was determined by a method described in. Document A) and the survival time of corneal grafts were evaluated with a slit lamp microscope every 7 days. On day 56 that was the final day of the experiment, in addition to the above evaluations, the expression levels of vascular endothelial cells (CD31), vascular endothelial cell growth factor (VEGF-A), and lymph vessels (Lyve-1) in the corneas were measured by real-time-PCR.
# [3] = tested on: foxp3, IL-10 and TGFβ1 in transplanted mouse corneas; assay: Mouse corneal transplant model: expression levels in the corneas by real-time PCR (qPCR) on day 14; conditions: day 14 after corneal transplantation
# Protocol: (§5) Mouse corneal transplant models were prepared (surgery), divided into groups (Group P, Group R2, and Group R3), and treated (ocular instillation) in the same manner as in Example 1. On day 14 after transplantation, cervical lymph node cells were collected, and CD4^+ T cells, the expression levels of inflammatory cytokines IFNγ and IL-17, CD4^+CD25^+Foxp3^+ regulatory T cells (Tregs) involved in immune tolerance, […], and the expression level of Foxp3 (Mean Fluorescein Intensity, MFI) were measured by flow cytometry (FACS). Further, on day 14 after transplantation, the expression levels of foxp3, IL-10, and TGFβ1 in the corneas were also measured by a real-time PCR (qPCR).
# [4] = tested on: CD31, VEGF-A and Lyve-1 in transplanted mouse corneas; assay: Mouse corneal transplant model: expression levels in the corneas by real-time PCR on day 56; conditions: Group R3: three times daily, vs Group P, p<0.001
# Protocol: as §1, §2, §3, §4
# [5] = tested on: mouse cervical lymph node cells; assay: Mouse corneal transplant model: cervical lymph node cells by flow cytometry (FACS) on day 14; conditions: day 14 after transplantation
# Protocol: as §5
# [6] = until day 56, vs Group P (PBS), p<0.05
smiles,measurement,setting,value
"C[C@H]1CNCCCN1S(=O)(=O)c1cccc2cncc(F)c12.Cl.O.O [ripasudil, 4-fluoro-5-{[(2S)-2-methyl-1,4-diazepan-1-yl]sulfonyl}isoquinoline monohydrochloride dihydrate]",numerical analysis of new blood vessels with Image J (FIG. 10),[1],effect of suppressing angiogenesis
same,"transparency of transplanted cornea (photographs, FIG. 1)",[2],maintained until day 56
same,angiogenesis score,[2]; [6],significantly lower
same,opacity score,[2]; [6],significantly lower
same,survival time of corneal grafts,[2]; [6],significantly prolonged
same,expression of foxp3 in the corneas,[3]; Group R2: twice daily,significantly increased
same,expression of IL-10 in the corneas,[3]; Group R3: three times daily,significantly increased
same,expression of TGFβ1 in the corneas,[3]; Group R3: three times daily,significantly increased
same,expression of foxp3 in the corneas,[3]; Group R3: three times daily,significantly increased
same,CD31 expression level in the corneas,[4],significantly lower
same,Lyve-1 expression level in the corneas,[4],significantly lower
same,VEGF-A expression level in the corneas,[4],significantly lower
same,Foxp3 expression level (MFI) in cervical lymph node cells,[5]; Group R2: twice daily,significantly increased
same,CD4+CD25+Foxp3+ regulatory T cells (Tregs) in cervical lymph node cells,[5]; Group R3: three times daily,significantly increased
same,CD4+CD25+Foxp3− regulatory T cells (exTregs) in cervical lymph node cells,[5]; Group R3: three times daily,significantly reduced
same,Foxp3 expression level (MFI) in cervical lymph node cells,[5]; Group R3: three times daily,significantly increased
same,inflammatory cytokine IFN-γ in cervical lymph node cells,[5]; Group R3: three times daily,significant reduction
